In US20090170804A1, “PIRFENIDONE/TOLL-LIKE RECEPTOR (TLR) AGONIST COMPOSITIONS AND METHODS FOR USING THEM TO STIMULATE PRODUCTION OF GRANULOCYTE COLONIZING STIMULATING FACTOR (G-CSF)” (priority 2005, published 2009):
Where two headings read alike, the source gives them in different places.

How the values were obtained:
Human PBMCs [1] = assay: LPS-mediated cytokine induction in human PBMCs (BioRad Multiplex Cytokine Platform); format: cell-based; design: TNF-α release in PBMCs (FIG. 9) / G-CSF release in PBMCs (FIG. 9): dose or concentration left out as unconfirmed; settings: for IC50: PBMC, 1 h pirfenidone pretreatment, LPS, optimal expression at 8 hours
Description: Human PBMCs (10^5 cells per well) were pretreated with pirfenidone (5 mM to 5 μM) for one hour in a 96-well plate and then stimulated with LPS ([…] to 0.01 ng/ml) for 1, 2, 8, or 24 hours at 37° C. Subsequently, cells were spun and supernatants collected and assayed for protein expression using the BioRad Multiplex Cytokine Platform, which enables 17 different cytokines to be analyzed simultaneously: G-CSF, GM-CSF, IFN-γ, IL-1β, IL-2, IL-4, IL-5, IL-6, IL-7, IL-8, IL-10, IL-12 (p70), IL-13, IL-17, MCP-1, MIP-1β, and TNF-α.

Human PBMCs [2] = assay: p38 inhibitors: TLR-agonist-mediated TNF-α and G-CSF release from human PBMCs; format: cell-based; settings: 1 h pretreatment, then LPS, Fibrin, LTA, PG or CpG for 24 hours
Excerpt: The effect of various p38 inhibitors on LPS-mediated TNF-α and G-CSF release from human PBMCs was examined. Briefly, human PBMCs (10^5 cells per well) were pretreated with pirfenidone, a hydroxyl-pirfenidone derivative, SB202190 (commercially available p38 inhibitor), or SB203580 (commercially available p38 inhibitor) for one hour in a 96-well plate and then stimulated with lipopolysaccharide (LPS, binds TLR4), Fibrin (binds TLR4), lipoteichoic acid (LTA, binds TLR2), peptidoglycan (PG, binds TLR2), or CpG (bacterial DNA, binds TLR9) for 24 hours at 37° C. Subsequently, cells were spun and supernatants collected and assayed for G-CSF expression.
Each TLR agonist alone is set to 1 (positive control) and the subsequent release of G-CSF in the presence of p38 inhibitors is determined relative to the positive control.

[3] = in the presence of pirfenidone (lmM)

| TLR-induced G-CSF release (FIG. 12, fold induction relative to TLR agonist alone) (Human PBMCs [2]) | Compound | IC50 (Human PBMCs [1]; human PBMCs, read-out: pirfenidone IC50 for IL-1β (LPS-mediated cytokine induction)) [mM] | IC50 (Human PBMCs [1]; human PBMCs, read-out: pirfenidone IC50 for TNF-α (LPS-mediated cytokine induction)) [mM] | LPS-mediated release of G-CSF (Human PBMCs [1]; human PBMCs) | LPS-mediated release of GM-CSF (Human PBMCs [1]; human PBMCs) | LPS-mediated release of IFN-γ (Human PBMCs [1]; human PBMCs) | LPS-mediated release of IL-1β (Human PBMCs [1]; human PBMCs) | LPS-mediated release of IL-10 (Human PBMCs [1]; human PBMCs) | LPS-mediated release of MCP-1 (Human PBMCs [1]; human PBMCs) | LPS-mediated release of TNF-α (Human PBMCs [1]; human PBMCs) | constitutive (but not LPS-mediated) expression of IL-6 (Human PBMCs [1]; human PBMCs) | constitutive (but not LPS-mediated) expression of IL-8 (Human PBMCs [1]; human PBMCs) | constitutive (but not LPS-mediated) expression of MIP-1β (Human PBMCs [1]; human PBMCs) | LPS-induced expression of G-CSF augmented by (Human PBMCs [1]; [3]) [%] | LPS-induced expression of IL-10 augmented by (Human PBMCs [1]; [3]) [%] | TNF-α expression in PBMCs (FIG. 1) (Human PBMCs [1]; pirfenidone 185 μg/mL and LPS 1 μg/mL) | G-CSF release in PBMCs (FIG. 9) (Human PBMCs [1]; pirfenidone and LPS) | TNF-α release in PBMCs (FIG. 9) (Human PBMCs [1]; pirfenidone and LPS) | induction of expression of IL-2, IL-4, IL-5, IL-7, IL-12, IL-13, or IL-17 (Human PBMCs [1]; human PBMCs stimulated with LPS) |
| --- | --- | --- | --- | --- | --- | --- | --- | --- | --- | --- | --- | --- | --- | --- | --- | --- | --- | --- | --- |
| augmented | Cc1ccc(=O)n(-c2ccccc2)c1 [pirfenidone, 5-methyl-1-phenyl-2-(1H)-pyridone] | ~2.5 | ~1 | augmented | inhibited | inhibited | inhibited | augmented | augmented | inhibited | inhibited | inhibited | inhibited | 100 | 35 | reduced | increased | decreased |  |
|  | lipopolysaccharide [LPS] |  |  |  |  |  |  |  |  |  |  |  |  |  |  |  |  |  | did not induce |
